Data reported in patent US20140179664A1, “Heterocyclyl Pyrimidine Analogues As JAK Inhibitors” (Cellzome Limited, priority 2011, published 2014).

Molecular target: T1, JAK3 (Homo sapiens, UniProt P52333)
T1 construct: endogenous in cells; host or cells: Molt4 (ATCC CRL-1582) and Ramos (ATCC CRL-1596), mixed lysate 1:2
T1 sequence (P52333 1-1124): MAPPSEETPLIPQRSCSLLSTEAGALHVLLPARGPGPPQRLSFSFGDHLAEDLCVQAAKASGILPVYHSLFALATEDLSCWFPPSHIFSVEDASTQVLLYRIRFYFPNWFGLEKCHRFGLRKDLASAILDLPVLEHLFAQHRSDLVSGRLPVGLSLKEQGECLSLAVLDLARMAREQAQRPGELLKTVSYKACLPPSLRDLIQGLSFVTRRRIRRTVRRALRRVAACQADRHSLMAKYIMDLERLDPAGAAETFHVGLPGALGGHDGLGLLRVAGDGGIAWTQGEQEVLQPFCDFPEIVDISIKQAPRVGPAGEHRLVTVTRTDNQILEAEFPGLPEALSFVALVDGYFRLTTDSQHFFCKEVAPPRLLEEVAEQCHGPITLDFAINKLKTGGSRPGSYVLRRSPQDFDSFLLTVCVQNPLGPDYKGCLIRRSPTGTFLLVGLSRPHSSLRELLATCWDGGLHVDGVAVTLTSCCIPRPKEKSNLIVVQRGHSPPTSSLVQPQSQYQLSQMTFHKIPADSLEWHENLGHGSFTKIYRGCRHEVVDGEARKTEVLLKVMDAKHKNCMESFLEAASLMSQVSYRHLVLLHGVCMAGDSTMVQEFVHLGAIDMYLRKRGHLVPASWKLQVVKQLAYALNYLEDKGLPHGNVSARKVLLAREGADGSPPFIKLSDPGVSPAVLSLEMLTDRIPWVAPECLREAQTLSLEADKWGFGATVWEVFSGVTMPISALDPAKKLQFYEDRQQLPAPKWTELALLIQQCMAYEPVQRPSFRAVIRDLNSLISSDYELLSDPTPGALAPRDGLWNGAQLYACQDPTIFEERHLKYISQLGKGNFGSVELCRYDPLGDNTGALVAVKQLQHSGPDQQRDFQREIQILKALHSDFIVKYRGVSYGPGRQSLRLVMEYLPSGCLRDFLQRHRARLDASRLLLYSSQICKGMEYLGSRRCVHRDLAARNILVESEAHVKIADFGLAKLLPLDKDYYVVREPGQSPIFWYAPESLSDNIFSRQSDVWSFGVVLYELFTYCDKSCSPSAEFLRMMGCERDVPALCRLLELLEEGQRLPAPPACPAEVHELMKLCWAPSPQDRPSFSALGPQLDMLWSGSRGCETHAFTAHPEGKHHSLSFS
Test: Kinobeads assay, JAK3
Type: binding
Conditions: mixed Molt4/Ramos lysate, read-out: Inhibition values (IC50) JAK3
Method: The compounds of the present invention as described in the previous examples were tested in a Kinobeads™ assay as described for ZAP-70 (WO-A 2007/137867). Briefly, test compounds (at various concentrations) and the affinity matrix with the immobilized aminopyrido-pyrimidine ligand 24 were added to cell lysate aliquots and allowed to bind to the proteins in the lysate sample. After the incubation time the beads with captured proteins were separated from the lysate. Bound proteins were then eluted and the presence of JAK1, JAK2, JAK3 and TYK2 was detected and quantified using specific antibodies in a dot blot procedure and the Odyssey infrared detection system. Dose response curves for individual kinases were generated and IC50 values calculated. Kinobeads™ assays for ZAP-70 (WO-A 2007/137867) and for kinase selectivity profiling (WO-A 2006/134056) have been previously described.
The affinity matrix was washed two times with 15 mL of lx DP buffer containing 0.2% NP40 (IGEPAL® CA-630, Sigma, #13021) and then resuspended in 1×DP buffer containing 0.2% NP40 (3% beads slurry).
5×DP buffer: 250 mM Tris-HCl pH 7.4, 25% Glycerol, 7.5 mM MgCl2, 750 mM NaCl, 5 mM Na3VO4; filter the 5×DP buffer through a 0.22 μm filter and store in aliquots at −80° C. The 5×DP buffer is diluted with H2O to 1×DP buffer containing 1 mM DTT and 25 mM NaF.
Stock solutions of test compounds were prepared in DMSO. In a 96 well plate […] solution of diluted test compounds at 5 mM in DMSO were prepared. Starting with this solution a 1:3 dilution series (9 steps) was prepared. For control experiments (no test compound) a buffer containing 2% DMSO was used.
Molt4 cells (ATCC catalogue number CRL-1582) and Ramos cells (ATCC catalogue number CRL-1596) were grown in 1 L Spinner flasks (Integra Biosciences, #182101) in suspension in RPMI 1640 medium (Invitrogen, #21875-034) supplemented with 10% Fetal Bovine Serum (Invitrogen) at a density between 0.15×10^6 and 1.2×10^6 cells/mL. Cells were harvested by centrifugation, washed once with 1×PBS buffer (Invitrogen, #14190-094) and cell pellets were frozen in liquid nitrogen and subsequently stored at −80° C. Cells were homogenized in a Potter S homogenizer in lysis buffer: 50 mM Tris-HCl, 0.8% NP40, 5% glycerol, 150 mM NaCl, 1.5 mM MgCl2, 25 mM NaF, 1 mM sodium vanadate, 1 mM DTT, pH 7.5. One complete EDTA-free tablet (protease inhibitor cocktail, Roche Diagnostics, 1873580) per 25 mL buffer was added. The material was dounced 10 times using a mechanized POTTER S, transferred to 50 mL falcon tubes, incubated for 30 minutes on ice and spun down for 10 minutes at 20,000 g at 4° C. (10,000 rpm in Sorvall SLA600, precooled). The supernatant was transferred to an ultracentrifuge (UZ)-polycarbonate tube (Beckmann, 355654) and spun for 1 hour at 100.000 g at 4° C. (33.500 rpm in Ti50.2, precooled). The supernatant was transferred again to a fresh 50 mL falcon tube, the protein concentration was determined by a Bradford assay (BioRad) and samples containing 50 mg of protein per aliquot were prepared. The samples were immediately used for experiments or frozen in liquid nitrogen and stored frozen at −80° C.
Cell lysate (approximately 50 mg protein per plate) was thawed in a water bath at room temperature and then stored on ice. To the thawed cell lysate 1×DP 0.8% NP40 buffer containing protease inhibitors (1 tablet for 25 mL buffer; EDTA-free protease inhibitor cocktail; Roche Diagnostics 1873580) was added in order to reach a final protein concentration of 10 mg/mL total protein. The diluted cell lysate was stored on ice. Mixed Molt4/Ramos lysate was prepared by combining one volume of Molt4 lysate and two volumes of Ramos lysate (ratio 1:2).
To a 96 well filter plate (Multiscreen HTS, BV Filter Plates, Millipore #MSBVN1250) were added per well: 100 μL affinity matrix (3% beads slurry), […], of compound solution, and 50 μL of diluted lysate. […]

SMILES	IC50 [nM]
Cn1cc(Nc2ncc(C(F)(F)F)c(N[C@H](CO)c3ccccc3)n2)cn1 [Compound 6]	< 100
Cn1cc(Nc2ncc(Cl)c(NC(C)(CO)c3ccccc3)n2)cn1 (centres unmarked) [Compound 7]	100 to 1000
Cn1cc(Nc2ncc(C(F)(F)F)c(NC(C)(CO)c3ccccc3)n2)cn1 (centres unmarked) [Compound 8]	100 to 1000
OCCn1cc(Nc2ncc(Cl)c(N[C@H](CO)c3ccccc3)n2)cn1 [Compound 9]	< 100
OCCn1cc(Nc2ncc(F)c(N[C@H](CO)c3ccccc3)n2)cn1 [Compound 10]	< 100
CCn1cc(Nc2ncc(Cl)c(N[C@H](CO)c3cccnc3)n2)cn1 [Compound 97]	< 100
CNC(=O)Cn1cc(Nc2ncc(Cl)c(N[C@H](CO)c3ccccc3OC)n2)cn1 [Compound 98]	< 100
COc1cccc([C@@H](CO)Nc2nc(Nc3cnn(CC(=O)N4CCOCC4)c3)ncc2Cl)c1 [Compound 102]	< 100
O=C(Cn1cc(Nc2ncc(Cl)c(N[C@H](CO)c3ccccc3F)n2)cn1)N1CCOCC1 [Compound 103]	< 100
COc1cccc([C@@H](CO)Nc2nc(Nc3cnn(C(C)C)c3)ncc2Cl)c1 [Compound 106]	100 to 1000
CC(C)n1cc(Nc2ncc(Cl)c(N[C@H](CO)c3cccnc3)n2)cn1 [Compound 107]	< 100
NC(=O)Cn1cc(Nc2ncc(F)c(N[C@H](CO)c3ccccc3)n2)cn1 [Compound 108]	100 to 1000
CNC(=O)Cn1cc(Nc2ncc(F)c(N[C@H](CO)c3ccccc3)n2)cn1 [Compound 111]	< 100
O=C(Cn1cc(Nc2ncc(F)c(N[C@H](CO)c3ccccc3)n2)cn1)N1CCOCC1 [Compound 112]	< 100
CC(C)NC(=O)Cn1cc(Nc2ncc(Cl)c(N[C@H](CO)c3ccccc3F)n2)cn1 [Compound 115]	< 100
C[C@@H](CO)NC(=O)Cn1cc(Nc2ncc(Cl)c(N[C@H](CO)c3ccccc3F)n2)cn1 [Compound 116]	< 100
Cn1cc(Nc2ncc(Cl)c(NC(CO)c3ccccc3Cl)n2)cn1 (centres unmarked) [Compound 117]	< 100
NC(=O)Cn1cc(Nc2ncc(Cl)c(NC(CO)c3ccccc3Cl)n2)cn1 (centres unmarked) [Compound 118]	< 100
OCCn1cc(Nc2ncc(Cl)c(NC(CO)c3ccccc3Cl)n2)cn1 (centres unmarked) [Compound 120]	< 100
Cn1cc(Nc2ncc(Cl)c(NC(CO)c3cc(F)cc(F)c3)n2)cn1 (centres unmarked) [Compound 121]	< 100
OCCn1cc(Nc2ncc(Cl)c(NC(CO)c3cc(F)cc(F)c3)n2)cn1 (centres unmarked) [Compound 122]	< 100
Cn1cc(Nc2ncc(Cl)c(NC(CO)c3cccc(N4CCOCC4=O)c3)n2)cn1 (centres unmarked) [Compound 124]	< 100
CCC(Nc1nc(Nc2cnn(C)c2)ncc1Cl)c1ccccc1F (centres unmarked) [Compound 125]	100 to 1000
CCC(Nc1nc(Nc2cnn(CC(N)=O)c2)ncc1Cl)c1ccccc1F (centres unmarked) [Compound 126]	100 to 1000
CN(C)C(=O)C(Nc1nc(Nc2cnn(CCO)c2)ncc1Cl)c1ccccc1F (centres unmarked) [Compound 127]	100 to 1000
Cn1cc(Nc2ncc(Cl)c(NC(CO)c3cc(F)ccc3F)n2)cn1 (centres unmarked) [Compound 129]	< 100
CNC(=O)Cn1cc(Nc2ncc(Cl)c(NC(CO)c3cc(F)ccc3F)n2)cn1 (centres unmarked) [Compound 130]	< 100
CNC(=O)Cn1cc(Nc2ncc(Cl)c(NC(CO)c3ccccc3C(F)(F)F)n2)cn1 (centres unmarked) [Compound 131]	100 to 1000
CNC(=O)Cn1cc(Nc2ncc(C)c(N[C@H](CO)c3ccccc3)n2)cn1 [Compound 133]	< 100

Second part, the compound after the results:

IC50 [nM]	SMILES
< 100	Cn1cc(Nc2ncc(Cl)c(N[C@H](CO)c3ccccc3)n2)cn1 [Compound 4]
100 to 1000	CC[C@@H](Nc1nc(Nc2cnn(C)c2)ncc1Cl)c1ccccc1 [Compound 5]
100 to 1000	Cn1cc(-c2cccc(C(CO)Nc3nc(Nc4cnn(CCO)c4)ncc3Cl)c2)cn1 (centres unmarked) [Compound 94]
< 100	CCn1cc(Nc2ncc(Cl)c(N[C@H](CO)c3ccccc3OC)n2)cn1 [Compound 95]
< 100	CCn1cc(Nc2ncc(Cl)c(N[C@H](CO)c3cccc(OC)c3)n2)cn1 [Compound 96]
< 100	CNC(=O)Cn1cc(Nc2ncc(Cl)c(N[C@H](CO)c3cccc(OC)c3)n2)cn1 [Compound 99]
< 100	CNC(=O)Cn1cc(Nc2ncc(Cl)c(N[C@H](CO)c3ccccc3F)n2)cn1 [Compound 100]
< 100	COc1ccccc1[C@@H](CO)Nc1nc(Nc2cnn(CC(=O)N3CCOCC3)c2)ncc1Cl [Compound 101]
< 100	O=C(Cn1cc(Nc2ncc(Cl)c(N[C@H](CO)c3cccnc3)n2)cn1)N1CCOCC1 [Compound 104]
< 100	COc1ccccc1[C@@H](CO)Nc1nc(Nc2cnn(C(C)C)c2)ncc1Cl [Compound 105]
< 100	CCn1cc(Nc2ncc(Cl)c(N[C@H](CO)c3ccccc3F)n2)cn1 [Compound 109]
< 100	CC(C)n1cc(Nc2ncc(Cl)c(N[C@H](CO)c3ccccc3F)n2)cn1 [Compound 110]
< 100	NCCCn1cc(Nc2ncc(Cl)c(N[C@H](CO)c3ccccc3)n2)cn1 [Compound 113]
< 100	CC(C)OCCn1cc(Nc2ncc(Cl)c(N[C@H](CO)c3ccccc3)n2)cn1 [Compound 114]
< 100	CNC(=O)Cn1cc(Nc2ncc(Cl)c(NC(CO)c3ccccc3Cl)n2)cn1 (centres unmarked) [Compound 119]
< 100	CNC(=O)Cn1cc(Nc2ncc(Cl)c(NC(CO)c3cc(F)cc(F)c3)n2)cn1 (centres unmarked) [Compound 123]
100 to 1000	O=C(NCC(F)(F)F)C(Nc1nc(Nc2cnn(CCO)c2)ncc1Cl)c1ccccc1F (centres unmarked) [Compound 128]
< 100	NC(=O)Cn1cc(Nc2ncc(Cl)c(NC(CO)c3cc(F)ccc3F)n2)cn1 (centres unmarked) [Compound 132]
